The species named for this experiment is Mus musculus. As to the kind of experiment: Anticonvulsant activity in mouse. The format is functional, organism-based.

Activity calls are given as the source filed them. The rule behind the calls is not given here.

Turning to `C[C@@H]1CC[C@@]2(NC1)O[C@H]1C[C@H]3[C@@H]4CC=C5C[C@@H](O[C@@H]6O[C@H](CO)[C@@H](O[C@@H]7O[C@@H](C)[C@H](O)[C@@H](O)[C@H]7O)[C@H](O)[C@H]6O[C@@H]6O[C@@H](C)[C@H](O)[C@@H](O)[C@H]6O)CC[C@]5(C)[C@H]4CC[C@]3(C)[C@H]1[C@@H]2C`, the result was inactive.
The value for `C[C@@H]1CC[C@@]2(NC1)O[C@H]1C[C@H]3[C@@H]4CC=C5C[C@@H](O[C@@H]6O[C@H](CO)[C@H](O)[C@H](O[C@@H]7O[C@H](CO)[C@@H](O)[C@H](O)[C@H]7O)[C@H]6O[C@@H]6O[C@@H](C)[C@H](O)[C@@H](O)[C@H]6O)CC[C@]5(C)[C@H]4CC[C@]3(C)[C@H]1[C@@H]2C` was “inactive”.

Source of the values: ChEMBL document CHEMBL1151645, “Constituents of Solanum dasyphyllum Fruit” (J Nat Prod, 1985).
